For test [1], the target named is Serine protease 1 (Homo sapiens, UniProt P07477). Nature of the test: Rate constant of deacylation for trypsin.
For test [2], the target named is Urokinase-type plasminogen activator (Homo sapiens, UniProt P00749). Description: Rate constant of deacylation for Urokinase-type plasminogen activator.
The target in test [3] is Prothrombin (Homo sapiens, UniProt P00734). Description: Rate constant of deacylation for thrombin.

Usually koff stands for the rate constant with which the complex falls apart. Lower therefore signals a long-lived complex.

Serine protease 1, sequence (P07477 whole entry): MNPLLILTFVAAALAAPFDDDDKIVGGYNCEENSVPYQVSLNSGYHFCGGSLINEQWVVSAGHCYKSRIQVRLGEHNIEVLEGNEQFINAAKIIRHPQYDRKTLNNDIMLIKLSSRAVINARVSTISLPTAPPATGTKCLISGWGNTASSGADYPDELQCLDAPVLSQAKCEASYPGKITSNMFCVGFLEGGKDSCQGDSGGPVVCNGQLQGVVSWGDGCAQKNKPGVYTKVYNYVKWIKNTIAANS

As for `C=C1O/C(=C/I)C[C@H](c2ccc(NC(=N)N)cc2)[C@H]1NC(=O)c1ccccc1`, the koff in test [1] was found to be 8.3e-05 s⁻¹; in test [2], 1.3e-05 s⁻¹. The compound `N=C(N)NCc1ccc(C2CC/C(=C\I)OC2=O)cc1` (stereo not drawn) gave a koff in test [3] of 0.000217 s⁻¹. Consider `C=C1CCC(c2ccc(CNC(=N)N)cc2)C(=O)O1` (stereo not drawn), for which the results for the koff in test [3] and in test [2] were 0.0001 s⁻¹ and 0.000733 s⁻¹, respectively. On to `C=C1CC(c2ccc(NC(=N)N)cc2)CC(=C)O1`, for which the values for the koff in test [1] and in test [2] were 3.3e-05 s⁻¹ and 0.00015 s⁻¹, respectively.

Consider `C=C1CC(c2ccc(NC(=N)N)cc2)C/C(=C\I)O1` (stereo not drawn), for which the koff in test [1] was found to be 0.000333 s⁻¹.

The values above are taken from BindingDB's records for doi:10.7270/Q25M67W6 (n/a, 1992).
